Non-standard residues stand in square brackets, D forms with d. Residues, ends and D or L forms follow the SMILES beside them. Deg = CCC(N)(CC)C(=O)O
Assays:
Experiment in all cases: MTT cytotoxicity assay, 48 hours (Example 14)
U87MG (Glioblastoma) = assay type: cell-based
Method: (§1) The cytotoxic effect of peptide sequences SEQ ID NO: 9, SEQ ID NO: 10, SEQ ID NO: 11 and SEQ ID NO: 12, were studied by MTT assay which is based on the principle of uptake of MTT[3-[4,5-dimethylthiazol-2-yl]-2,5-diphenyl tetrazolium bromide], a tetrazolium salt by the metabolically active cells where it is metabolized by active mitochondria into a blue colored formazan product which can be read spectrophotometrically. Tumor cells KB (oral squamous). HuTu80 (Stomach), PTC and SW620 (colon), U87MG (Glioblastoma), HBL 100. (Breast), HeP2 (laryngeal) and L132 (Lung) were incubated with the peptide analogs for 48 hours at 37° C. in a 96-well culture plate, followed by the addition of 100 μl MTT and further incubation of 1 hour. The formazon crystals formed inside the cells were dissolved with a detergent comprising 10% Sodium dodecyl sulfate and 0.01 N HCl and optical density read on a multiscan ELISA reader. The optical density was directly proportional to the number of proliferating and metabolically active cells.

L132 (Lung) = assay type: cell-based
Method: as §1

HeP2 (laryngeal) = assay type: cell-based
Method: as §1

HBL 100 (Breast) = assay type: cell-based, human
Method: as §1

HuTu80 (Stomach) = assay type: cell-based, human
Method: as §1

KB (oral squamous) = assay type: cell-based, human
Method: as §1

SW620 (colon) = assay type: cell-based, human
Method: as §1

PTC (colon) = assay type: cell-based, human
Method: as §1

`CCC(CC)(NC(=O)[C@H](Cc1c[nH]c2ccccc12)NC(=O)[C@H](CCC(N)=O)NC(=O)[C@H](N)Cc1ccccc1)C(=O)N[C@H](C(=O)NCC(=O)N[C@@H](Cc1c[nH]cn1)C(=O)N[C@@H](CC(C)C)C(N)=O)C(C)C` [SEQ ID: 9, D-Phe-Gln-Trp-Deg-Val-Gly-His-Leu-NH2] (H-[dF]QW[Deg]VGHL-NH2; N-terminus assumed) showed a Percentage cytotoxicity (U87MG (Glioblastoma); 10 pM) of 0.0 ± 0.0%, a Percentage cytotoxicity (U87MG (Glioblastoma); 100 pM) of 11.9 ± 4.1% and a Percentage cytotoxicity (U87MG (Glioblastoma); 1 nM) of 21.8 ± 0.1%. The Percentage cytotoxicity (U87MG (Glioblastoma); 10 nM) was 20.0 ± 0.0%, the Percentage cytotoxicity (U87MG (Glioblastoma); 100 nM) was 21.4 ± 0.1% and the Percentage cytotoxicity (U87MG (Glioblastoma); 1 μM) was 10.0 ± 0.0%. The Percentage cytotoxicity (L132 (Lung); L132, 10 pM) was 0.0 ± 0.0%, the Percentage cytotoxicity (L132 (Lung); L132, 100 pM) was 22.4 ± 0.8% and the Percentage cytotoxicity (L132 (Lung); L132, 1 nM) was 30.5 ± 4.1%. For the same compound, the Percentage cytotoxicity (L132 (Lung); L132, 10 nM) was 27.2 ± 3.1%, the Percentage cytotoxicity (L132 (Lung); L132, 100 nM) was 25.9 ± 2.6% and the Percentage cytotoxicity (L132 (Lung); L132, 1 μM) was 18.3 ± 2.9%. For the same compound, the Percentage cytotoxicity (HeP2 (laryngeal); HeP2, 10 pM) was 0.0 ± 0.0%, the Percentage cytotoxicity (HeP2 (laryngeal); HeP2, 100 pM) was 14.6 ± 0.6% and the Percentage cytotoxicity (HeP2 (laryngeal); HeP2, 1 nM) was 21.3 ± 2.2%. The Percentage cytotoxicity (HeP2 (laryngeal); HeP2, 10 nM) was 28.5 ± 3.1%, the Percentage cytotoxicity (HeP2 (laryngeal); HeP2, 100 nM) was 17.8 ± 0.3% and the Percentage cytotoxicity (HeP2 (laryngeal); HeP2, 1 μM) was 21.6 ± 1.8%. For the same compound, the Percentage cytotoxicity (HBL 100 (Breast); HBL100, 10 pM) was 17.2 ± 0.1%, the Percentage cytotoxicity (HBL 100 (Breast); HBL100, 100 pM) was 28.6 ± 2.2% and the Percentage cytotoxicity (HBL 100 (Breast); HBL100, 1 nM) was 34.1 ± 1.8%. The Percentage cytotoxicity (HBL 100 (Breast); HBL100, 10 nM) was 28.1 ± 0.6%, the Percentage cytotoxicity (HBL 100 (Breast); HBL100, 100 nM) was 22.4 ± 1.7% and the Percentage cytotoxicity (HBL 100 (Breast); HBL100, 1 μM) was 17.2 ± 0.4%. The Percentage cytotoxicity (HuTu80 (Stomach); HuTu80, 10 pM) was 19.5 ± 0.4%, the Percentage cytotoxicity (HuTu80 (Stomach); HuTu80, 100 pM) was 23.8 ± 2.8% and the Percentage cytotoxicity (HuTu80 (Stomach); HuTu80, 1 nM) was 28.0 ± 1.8%. For the same compound, the Percentage cytotoxicity (HuTu80 (Stomach); HuTu80, 10 nM) was 23.5 ± 2.9%, the Percentage cytotoxicity (HuTu80 (Stomach); HuTu80, 100 nM) was 13.5 ± 2.1% and the Percentage cytotoxicity (HuTu80 (Stomach); HuTu80, 1 μM) was 14.2 ± 0.6%. For the same compound, the Percentage cytotoxicity (KB (oral squamous); 10 pM) was 20.6 ± 4.1%, the Percentage cytotoxicity (KB (oral squamous); 100 pM) was 26.9 ± 2.9% and the Percentage cytotoxicity (KB (oral squamous); 1 nM) was 32.6 ± 3.7%. It also gave a Percentage cytotoxicity (KB (oral squamous); 10 nM) of 23.0 ± 2.1%, a Percentage cytotoxicity (KB (oral squamous); 100 nM) of 20.8 ± 1.7% and a Percentage cytotoxicity (KB (oral squamous); 1 μM) of 10.4 ± 1.6%. For the same compound, the Percentage cytotoxicity (SW620 (colon); SW620, 10 pM) was 15.1 ± 0.3%, the Percentage cytotoxicity (SW620 (colon); SW620, 100 pM) was 28.9 ± 0.2% and the Percentage cytotoxicity (SW620 (colon); SW620, 1 nM) was 30.8 ± 0.6%. It also gave a Percentage cytotoxicity (SW620 (colon); SW620, 10 nM) of 33.2 ± 2.9%, a Percentage cytotoxicity (SW620 (colon); SW620, 100 nM) of 25.8 ± 2.8% and a Percentage cytotoxicity (SW620 (colon); SW620, 1 μM) of 21.6 ± 2.1%. It also gave a Percentage cytotoxicity (PTC (colon); 10 pM) of 22.4 ± 2.2%, a Percentage cytotoxicity (PTC (colon); 100 pM) of 24.5 ± 3.9% and a Percentage cytotoxicity (PTC (colon); 1 nM) of 25.6 ± 5.1%. For the same compound, the Percentage cytotoxicity (PTC (colon); 10 nM) was 26.8 ± 3.8%, the Percentage cytotoxicity (PTC (colon); 100 nM) was 19.5 ± 4.1% and the Percentage cytotoxicity (PTC (colon); 1 μM) was 10.3 ± 0.9%.

— US6989371B1, “Bombesin analogs for treatment of cancer” (Dabur Research Foundation, priority 1996, dated 2006)
